Test results taken from patent publication US20250268844A1, “ANTICANCER AGENTS BASED ON CYCLOPENTENONES” (UNIVERSITY OF CRETE, priority 2022, published 2025).

Legend:
[1] = test system: A2780 ovarian carcinoma cells; assay: MTT conversion assay, A2780; type: cell-based, human; conditions: Homo sapiens, 48 hrs treatment
Protocol: (§1) In particular, Enone-1 and Enone-2 were tested for cytotoxic activity in 17 cell lines representing a broad spectrum of human tumors. They include human colorectal carcinoma (Caco2, RKO, HCT15, HT29), liver (HepG2), lung (A549), ovarian carcinoma (A2780, 2780CP, AGE60, SKOV3), anaplastic large cell lymphoma (Mac1 and Mac2a), breast carcinoma (MDA-MB-231), cervical (HeLa), bladder cancer (VM-CUB-1), melanoma (BRO), and multiple myeloma (MR20).
(§2) Each assay was performed in triplicate and repeated in 2-3 independent experiments. Specifically, to measure cell survival, 20 μl of 10 mg/ml MTT (3-([…])-2,5-diphenyl tetrazolium bromide; Sigma) was added to each well and the plates were incubated at 37° C. in 5% CO2 for 3 hours. The supernatant was removed and the formed crystals were dissolved in 200 μl dimethyl sulphoxide. The plates were then analysed at 450 nm on a plate reader. Growth inhibition (reduction in survival) was calculated by expressing the differences in optical densities between treatment wells and control wells as a percentage of the control.

[2] = test system: RKO colorectal carcinoma cells; assay: MTT conversion assay, RKO; type: cell-based, human; conditions: Homo sapiens, colon, 48 hrs treatment
Protocol: as §1, §2

[3] = test system: HCT15 colorectal carcinoma cells; assay: MTT conversion assay, HCT15; type: cell-based, human; conditions: Homo sapiens, HCT-15, HCT15, colon, 48 hrs treatment
Protocol: as §1, §2

[4] = test system: MDA-MB-231 breast carcinoma cells; assay: MTT conversion assay, MDA-MB-231; type: cell-based, human; conditions: Homo sapiens, 48 hrs treatment
Protocol: as §1, §2

[5] = test system: Mac1 anaplastic large cell lymphoma cells; assay: MTT conversion assay, Mac1; type: cell-based; conditions: Homo sapiens, Mac1, ALCL, 48 hrs treatment
Protocol: as §1, §2

[6] = test system: MR20 multiple myeloma cells; assay: MTT conversion assay, MR20; type: cell-based, human; conditions: Homo sapiens, Multiple myeloma cell, 48 hrs treatment
Protocol: as §1, §2

[7] = test system: HeLa cervical carcinoma cells; assay: MTT conversion assay, HeLa; type: cell-based, human; conditions: Homo sapiens, 48 hrs treatment
Protocol: as §1, §2

BRO melanoma cells = assay: MTT conversion assay, BRO; type: cell-based, human; conditions: Homo sapiens, 48 hrs treatment
Protocol: as §1, §2

[8] = test system: A2780 ovarian cancer cells; assay: PrestoBlue cell viability assay; type: cell-based, human; conditions: Homo sapiens, 72 hrs treatment, n=3 experiments
Protocol: The effects of Enone-1 and Enone-2 on cancer cells were confirmed using a second methodology, namely the PrestoBlue assay (PrestoBlue™ Cell Viability Reagent, Thermo Fisher, Catalog number: A13261), a cell permeable resazurin-based solution that functions as a cell viability indicator. A2780 ovarian cancer cells were plated as described above for the MTT assays and Enone drugs were added at increasing concentrations as indicated in FIG. 2. Cell viability was determined 72 hrs later following the addition of PrestoBlue, according to the manufacturer's instructions (Thermo Fisher).

[9] = test system: MB49 mouse bladder carcinoma cells; assay: MTT assay, MB49; type: cell-based; conditions: 48 hrs
Protocol: FIG. 5: Effects of enone compounds on mouse tumor growth.
as §2
First, the impact of Enone-1 and Enone-2 on the survival of MB49 cells was verified by MTT assays performed as described in FIG. 1.

[10] = test system: MB49 mouse bladder carcinoma tumors; assay: Subcutaneous MB49 tumor growth in C57BL/6 mice; type: in vivo; conditions: C57BL/6 female mice; 5 mg/kg intratumorally on days 7, 10, 14 and 20; vs saline
Protocol: The in vivo anti-tumor effect of Enones was determined by xenotransplantation of MB49 mouse bladder carcinoma cells in syngeneic, immunocompetent C57BL/6 female mice.
On this basis, the in vivo anti-tumor activity of Enone-2 was tested. Female mice were transplanted subcutaneously with 10^6 MB49 cells which formed tumors of approx. 40-60 mm^2 size by day 7. Mice were randomly separated in 2 groups of 5 animals each and injected intratumorally with 50 μl Enone-2 to achieve 5 mg/kg drug dose on days 7, 10, 14 and 20. The tumor size was monitored using a digital caliper and expressed in mm^2 by multiplying the length (the longest diameter) with the width (the shortest diameter perpendicular to length) of the tumor.

p53 = p53 immunoblot in AGE60 cells; type: cell-based, human; conditions: 2.5 μM, 6 or 14 hr
Protocol: FIG. 8: Enones induce the p53 pathway. […] Cell lysates were analyzed for p53 and GAPDH (loading control). (B) A2780 cells were cultured in the presence or absence of 2.5 μM for the indicated time points before being analyzed for p53 and GAPDH levels. (C) Treatment of A2780 cells with 2.5 μM Enone-2 results in the up-regulation of p53-regulated genes (*p<0.05; **p<0.01; ***p<0.001, n=4). (D) Induction of p53 accumulation in AGE60 ovarian carcinoma cells following 6 or 14 hr exposure to 2.5 μM Enone-2. (E) Enone-1 induces the p53 pathway in A2780 cells which were cultured in the presence of 2.5 μM of the drug and analyzed as in (B). (F) Treatment of A2780 cells with 2.5 μM Enone-2 results in the up-regulation of p53-regulated genes (*p<0.05; **p<0.01; ***p<0.001, n=3).
The effects of Enone-2 on p53 and p53-dependent transcription of cell cycle and cell death-associated genes was confirmed by immunoblotting for p53 and by reverse transcription qPCR (RT-qPCR) for mdm2, p21, bax and bbc3/puma, established p53 target genes.

[11] = test system: A2780 ovarian carcinoma cells; assay: Gene expression profiling (RNAseq) of A2780 cells; type: cell-based, human
Excerpt: FIG. 7: Schematic representation of KEGG p53 pathway-related genes and their cellular roles.
Activation of p53 occurs in response to DNA damage (so called “DNA damage response”, DDR) or ribosomal stress (RS) and conveys signals that arrest cell cycle and induce cell death.
This group entailed the following gene transcripts: ZFAND2A; KCTD10; MDM2; PLK2; DDIT3; DNAJB9; PSMD6; RYBP; PSMD10; SPSB3; PSMB8; PELI1; RNF103; DNAJB2; UBE2H; ATXN3; PSEN1; RCHY1; UBR1; ANAPC16; JKAMP; DDA1; PSMA6; TMUB2; TRIM72; SPOPL; UBE2J1; ARIH1; NPLOC4; CDC26; USP19; UFD1; TNFAIP1; PSMB6; DERL1; UBE2V2; SELENOS; PSMA1; UBE2.

- IC50 [1]: 500 nM
- IC50 [2]: 1200 nM
- IC50 [3]: 900 nM
- IC50 [4]: 2500 nM
- IC50 [5]: 1800 nM
- IC50 [6]: 100 nM
- IC50 [7]: 6200 nM
- IC50 (BRO melanoma cells): 3800 nM
- IC50 [8]: 120 nM
- IC50 [9]: 600 nM
SMILES: C[C@@]1(O)C=CC(=O)[C@H]1c1ccc(F)c2ccccc12 (stereo in doubt) [Enone-2, 5-(4-fluoronaphthalen-1-yl)-4-hydroxy-4-methylcyclopent-2-en-1-one]
- subcutaneous tumor growth (tumor size) [10]: arrested tumor growth
- p53 accumulation (immunoblot) (p53): robust p53 accumulation
- transcripts of proteasome-mediated ubiquitin-dependent protein catabolic process ([11]; 2.5 μM for 6 hours, bioinformatic analysis): enrichment of up-regulated transcripts
- p53 pathway activation (gene expression profiling) ([11]; 2.5 μM for 6 hrs or 14 hrs): activation of the p53 pathway
